Where two headings read alike, the source gives them in different places.
Tests used:
[1] = test system: genotype A, "Long" strain RSV; experiment: RSV-A assay: CPE protection in HEp-2 cells, ATPlite readout; assay type: cell-based, human respiratory syncytial virus
Outline: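 EC50 derives from ATPlite luminescence after 5-day culture of RSV Long-infected (MOI 0.1) HEp-2 cells, seeded 8,000/well, exposed to duplicate 2-fold compound series. CC50 comes from an identical plate receiving medium instead of virus.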

[2] = test system: RSV genotype B, strain 9320; experiment: RSV-B assay: A549 cells infected with RSV-B, qPCR or ATPlite readout; assay type: cell-based; details: read-out: Human RSV-B EC50
Excerpt: HEp-2 cells, (originally derived from tumors grown in irradiated-cortisonised weanling rats that had been injected with epidermoid carcinoma tissue from a person's larynx, but later found to be indistinguishable from HeLa cells by PCR DNA analysis), were used for the culturing of genotype B, strain 9320. Flasks were inoculated with RSV-B and viral stocks were collected once cytopathic effect (CPE) was greater than […]. Viral stocks in 25% sucrose media were snap frozen using liquid nitrogen to increase viral stability. Viral stock titers were quantified by tissue culture infectious dose 50% (TCID50) using 8,000 cells per well and 5-fold viral dilutions across a 96-well plate, cultured for 4 days. Viral stock titers were also quantified by a plaque forming unit assay, as described elsewhere.
The assay is run as follows: A549 cells (originally derived through explant culture from a person's carcinomatous lung tissue) are seeded into the inner 60 wells of a 96-well plate at 3,000 cells per well in a volume of 50 μL using A549 growth media (F-12K Media, 1% Penn/Strep, 1% nonessential amino acids, 10% heat-inactivated FBS). 2-fold serial dilutions of control and test compounds are added to the wells in duplicate in a total volume of 25 μL. Viral stock is then added to the wells at a multiplicity of infection (MOI) of 0.5 in a volume of 25 μL, bringing the total volume of each well to 100 μL. The MOI is calculated using the PFU/mL, or TCID50 if unavailable. Each 96-well plate has a control column of 6 wells with cells and virus but no compound (negative control, max CPE), a column with cells but no compound or virus (positive control, minimum CPE), and a column with no cells or virus or compound (background plate/reagent control). The control wells with cells but no virus are given an additional 25 μL of growth media containing an equal quantity of sucrose as those wells receiving the viral stock in order to keep consistent in media and volume conditions. The outer wells of the plate are filled with 125 μL of moat media (DMEM, 1% Penn/Strep) to act as a thermal and evaporative moat around the test wells. 6 days post infection, the plates are read using qPCR or ATP lite (50 μL added per well), which quantifies the amount of ATP (a measure of cell health) present in each well. Assay plates treated with APTlite are read using the Envision luminometer. […] EC50 ranges are as follows: A <0.4 μM; B 0.4-0.8 μM; C >0.8 μM.

HEp-2 cells = experiment: Cytotoxicity in parallel to the RSV-A assay (no virus), ATPlite readout; assay type: cell-based, human
Method: Following extensive parameter testing, the final assay is run as follows: HEp-2 cells are seeded into the inner 60 wells of a 96-well plate at 8,000 cells per well in a volume of 50 μL using Growth Media (DMEM without phenol red, 1% L-Glut, 1% Penn/Strep, 1% nonessential amino acids, 10% heat-inactivated FBS). 2-fold serial dilutions of control and test compounds are added to the wells in duplicate in a total volume of 25 μL. Viral stock is then added to the wells at a multiplicity of infection (MOI) of 0.1 in a volume of 25 μL, bringing the total volume of each well to 100 μL. The MOI is calculated using the PFU/mL, or TCID50 if unavailable. Each 96-well plate has a control column of 6 wells with cells and virus but no compound (negative control, max CPE), a column with cells but no compound or virus (positive control, minimum CPE), and a column with no cells or virus or compound (background plate/reagent control). The control wells with cells but no virus are given an additional 25 μL of growth media containing an equal quantity of sucrose as those wells receiving the viral stock in order to keep consistent in media and volume conditions. The outer wells of the plate are filled with 125 μL of moat media (DMEM, 1% Penn/Strep) to act as a thermal and evaporative moat around the test wells. Following a 5-day incubation period, the plates are read using ATPlite (50 μL added per well), which quantifies the amount of ATP (a measure of cell health) present in each well. Assay plates are read using the Envision luminometer. In parallel, cytotoxicity is examined on an additional 96-well plate treated in an identical manner, but substituting the 25 μL of viral stock for 25 μL of growth media. […] EC50 ranges are as follows: A <0.4 μM; B 0.4-0.8 μM; C >0.8 μM and CC50 ranges are as follows: A >50 μM; B 10-50 μM; C <10 μM.

[3] = HEp-2 cells, RSV-A Long strain, ATPlite readout, read-out: Human RSV-A (“Long” strain) EC50
[4] = human respiratory syncytial virus, HEp-2, read-out: Human RSV-A (“Long” strain) EC50
[5] = human respiratory syncytial virus, A549, 144 h

SMILES | EC50 [1, 3] | EC50 ([2]; A549 cells, strain 9320, MOI 0.5, 6 days post infection) | EC50 [1, 4] | CC50 (HEp-2 cells) | EC50 [2, 5]
O=C1Nc2c(F)cccc2C(c2ccccc2)=N[C@@H]1Nc1nnc(-c2cccnc2N2CCOCC2)o1 (single isomer, unassigned) [Example 358] | < 400 nM | < 400 nM | – | – | –
O=C1Nc2ccccc2C(c2ccccc2)=NC1Nc1nnc(-c2ccc(F)cc2)s1 (stereo not shown) [Example 80] | – | – | > 800 nM | > 50000 nM | –
O=C1Nc2ccccc2C(c2ccccc2)=NC1Nc1nnc(-c2ccccc2)s1 (stereo not shown) [Example 81] | – | – | > 800 nM | > 50000 nM | –
N#Cc1ccc(-c2nnc(NC3N=C(c4ccccc4)c4ccccc4NC3=O)s2)cc1 (stereo not shown) [Example 82] | – | – | 400 to 800 nM | > 50000 nM | –
O=C1Nc2ccccc2C(c2ccccc2)=NC1Nc1nnc(-c2ccncc2)s1 (stereo not shown) [Example 83] | – | – | > 800 nM | > 50000 nM | –
O=C1Nc2ccccc2C(c2ccccc2)=NC1Nc1ncc(-c2ccccc2)o1 (stereo not shown) [Example 84] | – | – | > 800 nM | 10000 to 50000 nM | –
O=C1Nc2ccccc2C(c2ccccc2)=NC1Nc1nnc(-c2ccccc2)[nH]1 (stereo not shown) [Example 86] | – | – | > 800 nM | > 50000 nM | –
O=C1Nc2ccccc2C(c2ccccc2)=NC1Nc1nc(-c2ccccc2)ns1 (stereo not shown) [Example 87] | – | – | > 800 nM | 10000 to 50000 nM | –
O=C1Nc2ccccc2C(c2ccccc2)=NC1Nc1nc(N2CCOCC2)ns1 (stereo not shown) [Example 88] | – | – | > 800 nM | 10000 to 50000 nM | –
O=C1Nc2ccccc2C(c2ccccc2)=NC1Nc1nc(-c2ccccc2)no1 (stereo not shown) [Example 89] | > 800 nM | – | – | 10000 to 50000 nM | –
O=C1Nc2ccccc2C(c2ccccc2)=NC1Nc1nc(-c2ccccc2)cs1 (stereo not shown) [Example 90] | – | – | > 800 nM | < 10000 nM | –
O=C1Nc2ccccc2C(c2ccccc2)=NC1Nc1cc(-c2ccccc2)ncn1 (stereo not shown) [Example 92] | – | – | > 800 nM | 10000 to 50000 nM | –
O=C1Nc2ccccc2C(c2ccccc2)=NC1Nc1cc(N2CCOCC2)ncn1 (stereo not shown) [Example 93] | – | – | > 800 nM | 10000 to 50000 nM | –
O=C1Nc2ccccc2C(c2ccccc2)=NC1Nc1cc(Oc2ccccc2)ncn1 (stereo not shown) [Example 94] | – | – | > 800 nM | 10000 to 50000 nM | –
O=C1Nc2ccccc2C(c2ccccc2)=NC1Nc1ccc(-c2ccccc2)nn1 (stereo not shown) [Example 95] | – | – | 400 to 800 nM | – | > 800 nM
O=C1Nc2ccccc2C(c2ccccc2)=NC1Nc1ccnc(-c2ccccc2)n1 (stereo not shown) [Example 96] | – | – | > 800 nM | 10000 to 50000 nM | –
O=C1Nc2ccccc2C(c2ccccc2)=NC1Nc1cccn(Cc2ccccc2)c1=O (stereo not shown) [Example 97] | – | – | > 800 nM | > 50000 nM | –
O=C1Nc2ccccc2C(c2ccccc2)=NC1Nc1nc2ccc(Cl)cc2o1 (stereo not shown) [Example 99] | – | – | > 800 nM | 10000 to 50000 nM | –
O=C1Nc2ccccc2C(c2ccccc2)=NC1Nc1nc2ccccc2o1 (stereo not shown) [Example 100] | – | – | > 800 nM | 10000 to 50000 nM | –
O=C1Nc2ccccc2C(c2ccccc2)=NC1Nc1nc2ccccc2s1 (stereo not shown) [Example 101] | – | – | > 800 nM | 10000 to 50000 nM | –
O=C1Nc2ccccc2C(c2ccccc2)=NC1Nc1nc2ccc(F)cc2o1 (stereo not shown) [Example 103] | – | – | > 800 nM | 10000 to 50000 nM | –
O=C1Nc2ccccc2C(c2ccccc2)=NC1Nc1nc2cc(F)ccc2o1 (stereo not shown) [Example 104] | – | – | > 800 nM | 10000 to 50000 nM | –

SMILES | EC50 [1, 3] | EC50 ([2]; A549 cells, strain 9320, MOI 0.5, 6 days post infection) | EC50 [1, 4] | CC50 (HEp-2 cells) | EC50 [2, 5]
O=C1Nc2ccccc2C(c2ccccc2)=NC1Nc1nc2c(F)cccc2o1 (stereo not shown) [Example 105] | – | – | > 800 nM | > 50000 nM | –
Cc1ccc2oc(NC3N=C(c4ccccc4)c4ccccc4NC3=O)nc2c1 (stereo not shown) [Example 106] | – | – | > 800 nM | < 10000 nM | –
CN(C)c1ccc(-c2nnc(NC3N=C(c4ccccc4)c4ccccc4NC3=O)o2)nc1 (stereo not shown) [Example 108] | – | – | > 800 nM | – | > 800 nM
O=C1Nc2ccccc2C(c2ccccc2)=NC1Nc1nnc(-c2cccnc2N2CCOCC2)o1 (stereo not shown) [Example 120] | – | – | < 400 nM | – | 400 to 800 nM
O=C1Nc2ccccc2C(c2ccccc2)=NC1Nc1nnc(-c2ccc(C(F)(F)F)cc2N2CCOCC2)o1 (stereo not shown) [Example 123] | – | – | < 400 nM | – | 400 to 800 nM
O=C1Nc2ccccc2C(c2ccccc2)=NC1Nc1nnc(-c2ccc(N3CCOCC3)cc2)o1 (stereo not shown) [Example 124] | – | – | – | – | < 400 nM
O=C1Nc2ccccc2C(c2ccccc2)=NC1Nc1nnc(-c2ccccc2N2CCOCC2)o1 (stereo not shown) [Example 125] | – | – | – | – | 400 to 800 nM
O=C1Nc2ccccc2C(c2ccccc2)=NC1Nc1nnc(-c2ccc(F)cc2N2CCOCC2)o1 (stereo not shown) [Example 127] | – | – | < 400 nM | – | < 400 nM
O=C1Nc2ccccc2C(c2ccccc2)=NC1Nc1nnc(-c2ccc(-n3cccn3)cc2N2CCOCC2)o1 (stereo not shown) [Example 129] | – | – | < 400 nM | – | < 400 nM
N#Cc1ccc(-c2nnc(NC3N=C(c4ccccc4)c4ccccc4NC3=O)o2)c(N2CCOCC2)c1 (stereo not shown) [Example 131] | – | – | < 400 nM | – | < 400 nM
O=C1Nc2ccccc2C(c2ccccc2)=N[C@@H]1Nc1nnc(-c2ncc(F)cc2N2CCOCC2)o1 [Example 136, (S)-3-((5-(5-fluoro-3-morpholinopyridin-2-yl)-1,3,4-oxadiazol-2-yl)amino)-5-phenyl-1,3-dihydro-2H-benzo[e][1,4]diazepin-2-one] | – | – | < 400 nM | – | < 400 nM
Cc1ccc(-c2nnc(NC3N=C(c4ccccc4)c4ccccc4NC3=O)o2)c(N2CCOCC2)n1 (stereo not shown) [Example 144] | – | – | < 400 nM | – | < 400 nM
N#Cc1ccc(-c2nnc(N[C@H]3N=C(c4ccccc4)c4ccccc4NC3=O)o2)c(N2CCOCC2)n1 [Example 153] | – | – | < 400 nM | – | < 400 nM
Cn1c(N2CCOCC2)c(-c2nnc(N[C@H]3N=C(c4ccccc4)c4ccccc4NC3=O)o2)ccc1=O [Example 155] | – | – | < 400 nM | – | < 400 nM
Cc1nc(N2CCOCC2)c(-c2nnc(N[C@H]3N=C(c4ccccc4)c4ccccc4NC3=O)o2)cc1C#N [Example 158] | – | – | < 400 nM | – | < 400 nM
N#Cc1cnc(-c2nnc(N[C@H]3N=C(c4ccccc4)c4ccccc4NC3=O)o2)c(N2CCOCC2)c1 [Example 160] | – | – | – | – | < 400 nM
O=C1Nc2ccccc2C(c2ccccc2)=N[C@@H]1Nc1nnc(-c2ncc(Br)cc2N2CCOCC2)o1 [Example 168] | – | – | < 400 nM | – | < 400 nM
O=C1Nc2ccccc2C(c2ccccc2)=N[C@@H]1Nc1nnc(-c2ncc(C3CC3)cc2N2CCOCC2)o1 [Example 169] | – | – | < 400 nM | – | < 400 nM
N#Cc1cc(-c2nnc(N[C@H]3N=C(c4ccccc4)c4ccccc4NC3=O)o2)c(N2CCOCC2)nc1C1CC1 [Example 175] | – | – | < 400 nM | – | 400 to 800 nM
O=C1Nc2ccccc2C(c2ccccc2)=N[C@@H]1Nc1nnc(-c2oc3ccccc3c2N2CCOCC2)o1 [Example 179] | – | – | < 400 nM | – | < 400 nM
CN1CCN(c2ccccc2-c2nnc(NC3N=C(c4ccccc4)c4ccccc4NC3=O)o2)CC1 (stereo not shown) [Example 224] | – | – | > 800 nM | – | < 400 nM
O=C1Nc2ccccc2C(c2ccccc2)=N[C@@H]1Nc1nnc(-c2cccnc2N2CCOCC2)o1 [Example 242] | – | – | < 400 nM | – | < 400 nM
